This is an account of results in US10617732B2, “Composition including extract of Dolichos lablab Linne as active ingredient for preventing or ameliorating non-alcoholic fatty liver disease” (KOREA INSTITUTE OF ORIENTAL MEDICINE, priority 2014, dated 2020).

This experiment has as its system hepatocarcinoma cell line (HepG2). As to the kind of experiment: Oil Red O staining assay of triglyceride in free fatty acid-treated cells. Type of experiment: cell-based. As to conditions: HepG2, 1 mM free fatty acid; 10, 30, 50 and 100 μM. As for the experimental part:
After the medium was removed from the Hepatocarcinoma cell line (HepG2), the cells were washed with 0.5 ml of PBS buffer solution, and the PBS buffer solution was completely removed therefrom. Then, 0.5 ml of 10% formalin was added thereto at room temperature and the resultant cells were incubated for 10 minutes.
After removing the formalin and adding 0.5 ml of fresh formalin, the cells were incubated for at least 1 hour (the cells can be stored in a formalin solution for several days before staining, and needs to be wrapped with an aluminum foil and parafilm to prevent the cells from being dried). […]
0.5 ml of an Oil Red O solution was added to the dried cells, which was then incubated at room temperature for 10 minutes. […] The debris of the staining solution was removed as much as possible, and images of the cells were obtained using a fluorescence microscope.
To the cells that had been completely dried, 0.5 ml of Oil Red O staining solution prepared by using 100% of isopropanol in a dry state was added. […] At this time, the resultant solution was mixed with a pipette up and down so that the cells were stained well with Oil Red O. Then, the mixture was transferred to a 96-well plate and the OD was measured at 500 nm. The OD value of 100% isopropanol was measured and used as a reference value (0 point).

SMILES strings stand for the structures.

With `CC1(C)[C@@H](O)CC[C@]2(C)[C@H]3C(=O)C=C4[C@@H]5C[C@@](C)(C(=O)O)CC[C@]5(C)CC[C@@]4(C)[C@]3(C)CC[C@@H]12` [18 beta-glycyrrhetinic acid], the “content of triglyceride in Oil-red-O staining images” value is “the higher concentration of 18 beta-glycyrrhetinic acid, the smaller content of triglyceride”.
